Patent US8685371B2, “Agents for detecting and imaging cell death” (Cambridge Enterprise Limited, priority 2008, dated 2014)
Values joined by “and” are separate entries in the source; they are usually repeats but may differ in a detail not shown here. Equal entries are not always repeated. Where two headings read alike, the source gives them in different places.

Columns and labels:
Test in all cases: Surface plasmon resonance (SPR) binding to phosphatidylserine-coated L1 chip
[1] = target: T1, Rattus norvegicus synaptotagmin I C2A domain, wild type (Rattus norvegicus, UniProt P21707); settings: FIG. 8; thermal equilibrium SPR data, 1:1 Langmuir binding model, protein 5-95 nM, 37° C., 2 mM CaCl2, pH 7.4; read-out: dissociation constant (KD)
T1 construct: GST (N); made in house; host or cells: E. coli BL21
T1 sequence (P21707 141-260 limits assumed): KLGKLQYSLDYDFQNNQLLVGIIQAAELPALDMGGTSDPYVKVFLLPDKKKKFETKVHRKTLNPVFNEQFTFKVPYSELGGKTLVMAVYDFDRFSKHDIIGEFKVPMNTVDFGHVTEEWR
Experimental: (§1) Large multilamellar vesicles (LMVs) were prepared using three types of phospholipids (Phosphatidylserine, PS; Phosphatidylethanolamine, PE and Phosphatidylcholine, PC, Avanti Polar Lipids, Alabaster, Ala., USA). A sample of 2.6 μmol of phospholipids (PS:PE:PC mixture in chloroform; molar ratio 35:50:15) was dried under a gentle stream of nitrogen for half an hour and resuspended in 2.6 mL of C2A binding buffer (HBS=20 mM HEPES, 150 mM NaCl, pH 7.4, containing 2 mM CaCl2), by vigorous vortex mixing.
Surface Plasmon Resonance (SPR) analysis was performed on L1 sensor chips using a Biacore T100 system (Biacore, GE Healthcare). […]
Each protein solution was prepared automatically by the system at varying concentrations from 0 to 100 nM or from 5 nM to 75 nM using automated mix fraction preparation, and all injections were conducted in duplicate in C2A binding buffer at a flow rate of 30 μL min^−1 and 37° C. All concentrations were analyzed in duplicate. Protein affinity for PS was evaluated by estimating the thermal equilibrium affinity dissociation constants (KD), obtained from the response values 4 s before the end of the association phase of the corresponding interaction sensorgrams (FIG. 8). […]

[2] = target: T2, Rattus norvegicus synaptotagmin I C2A domain variant C2Am, S78C (S217C of full-length synaptotagmin I), SEQ ID NO: 1 (Rattus norvegicus, UniProt P21707, S217C); settings: 37° C., 2 mM CaCl2, pH 7.4
T2 construct: GST (N, cleaved yes); linker between GST and C2A (part after the thrombin site) (N); made in house; host or cells: E. coli BL21
T2 sequence (P21707 140-267 S217C): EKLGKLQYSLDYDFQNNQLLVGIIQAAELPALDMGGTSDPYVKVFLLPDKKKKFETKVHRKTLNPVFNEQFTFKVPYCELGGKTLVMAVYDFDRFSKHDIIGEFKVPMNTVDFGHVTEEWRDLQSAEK
Description: (§2) The Rattus norvegicus synaptotagmin sequence was acquired using the NCBI Genbank service (sequence identity NM_001033680; NM_001033680.2) and the C2A domain was selected from this sequence. Three candidate cysteine mutants were selected at: Ser217, Gln154, Asn248 (see FIG. 2). Appropriate primers for mutagenesis were designed with the use of Quikchange Primer Design software. The C2A-containing pGEX-2T vector (GE Healthcare, Chalfont St Giles, UK) was isolated from BL21 E. coli cells and underwent a double restriction digest to confirm its identity. Mutagenesis was performed by the Stratagene QuikChange Site-Directed Mutagenesis kit. E. coli DH5α competent cells were transformed with the mutant plasmid by heat shock and the amplified vector then isolated and sequenced. Finally, E. coli BL21 cells were transformed with the vector by electroporation.
(§3) S217C (position 78 of the C2A domain; position 217 of full-length Synaptotagmin I) mutant was selected as the best expressed site-directed mutant of C2A (C2Am).
as §1
Surface Plasmon Resonance (SPR) analysis was performed on L1 sensor chips using a Biacore T100 system (Biacore, GE Healthcare).
In some experiments, the chip flow cells were washed with a 2-min pulse of a mixture of isopropanol/NaOH 50 mM (2:3 volume) at 5 μL, min^−1, and one coated with 5 μL of a suspension of SMVs containing 1 mM of phospholipids (at 1 μL min^−1), generating an average relative response of ca. 2,000 RU (relative units). Unbound multilamellar material was removed from the chip after SMV injection, by applying three 20s regeneration pulses of sodium hydroxide (50 mM, at 20 μL min^−1).
In other experiments, the chip flow cells were washed with two, 30 s pulses of 20 mM, 3-[(3Cholamidopropyl)dimethylammonio]-1-propanesulfonate (CHAPS, at 30 μL min−1), then one flow cell (test) was coated with a suspension of test SMVs (PS:PE:PC) containing 1 mM of phospholipids (at 5 μL min−1), until an average relative response of ca. 5000 RU (relative units) was reached. Unbound multilamellar material was removed from the lipid bilayer after SMV injection, by applying two, 30 s pulses of sodium hydroxide (50 mM, at 30 μL min−1).
Another flow cell was left uncoated as a control path. In some experiments, another flow cell (control) was coated with a suspension of control SMVs (PE:PC) containing 1 mM of phospholipids (at 5 μL min−1), until an average relative response of ca. 5000 RU (relative units). Control SMVs were prepared using PE and PC (molar ratio 77:23), and unbound material removed as above
After a stable baseline had been achieved, the proteins were allowed to interact sequentially with the chip surface of the two flow cells of interest, for 2 min (association phase) and 1 min (dissociation phase) at 30 μL min^−1 or for 60 s (association phase) at 40 μL min^−1 at 37° C. The phospholipid bilayer was regenerated using a 15 s or 20 s pulse of HBS containing 10 mM NaEDTA, or (HBS, 20 mm EDTA, pH 7.4) at 40 μL min^−1, after each individual injection.
Each protein solution was prepared automatically by the system at varying concentrations from 0 to 100 nM or from 5 nM to 75 nM using automated mix fraction preparation, and all injections were conducted in duplicate in C2A binding buffer at a flow rate of 30 μL min^−1 and 37° C. All concentrations were analyzed in duplicate. […]

[3] = target: T3, C2Am-AlxAF647: Rattus norvegicus synaptotagmin I C2A domain variant C2Am, S78C (S217C of full-length synaptotagmin I), SEQ ID NO: 1, labelled at cysteine-78 wit (Rattus norvegicus, UniProt P21707, S217C); settings: 37° C., 2 mM CaCl2, pH 7.4
T3 construct: GST (N, cleaved yes); linker between GST and C2A (part after the thrombin site) (N); made in house; host or cells: E. coli BL21
T3 sequence (P21707 140-267 S217C): as above
Description: as §2, §3
The mutant protein (C2Am) was covalently labeled with the fluorochrome Alexa Fluor 647 (AlxAF647), via a reaction between the cysteine-78 residue with the maleimide group of Alexa Fluor 647 C2 maleimide (Invitrogen). Briefly, the protein was reduced using 10 mM DTT for half an hour at room temperature. The protein was then washed in a 5-KDa vivaspin concentrator (Sartorius, Epsom, UK) in HNE buffer (20 mM HEPES, 100 mM NaCl, 5 mM EDTA, pH 7.4). This removed any residual DTT, which interferes with the conjugation reaction. The protein was kept at a concentration in the range 50-100 μM, and approximately a 10-fold molar excess of the fluorescent maleimide dye was added. The reaction was allowed to proceed on a magnetic stirrer at 4° C. overnight. Gel filtration was used to separate the modified protein from unreacted dye. Electrospray ionisation (ESI) mass spectrometry was used to confirm successful modification of the protein, which yielded a single species of approximately 17204 Da (C2Am-AlxAF647). ESI mass spectrometry of Annexin V-Alexa Fluor647™ was also performed. Briefly, samples were desalted using Millipore mC18 Ziptips and eluted with 50% MeCN/0.2% formic acid. Samples were analyzed by direct infusion at a flow rate of […] into a Waters QtofMicro, using 70% MeOH/0.2% formic acid as the mobile phase. Typical settings: capillary 3000V, cone 90V, capillary temperature 80° C., desolvation temperature 150° C., calibration by myoglobin and/or trypsinogen collected later in the same file. Deconvolution was conducted using Waters MassLynx MaxEnt 1 software (Waters Ltd, Manchester, UK). […]

[4] = kinetic analysis of SPR data, read-out: KD (kinetics)

**Q.** With Phosphatidylserine as the substance, how does the Kd [1] read?
**A.** Its Kd is 48.5 ± 3.5 nM.

**Q.** And the Kd ([2]; FIG. 8, thermal equilibrium SPR data, 1:1 Langmuir binding model, protein 5-95 nM, read-out: dissociation constant (KD))?
**A.** Its Kd is 49.4 ± 4.9 nM.

**Q.** And the Kd ([2]; affinity analysis of SPR data, duplicate injections, listed as PS, read-out: KD (affinity))?
**A.** The Kd was 55.4 ± 3.5 nM.

**Q.** And the Kd ([2]; affinity analysis of SPR data, duplicate injections, read-out: KD (affinity))?
**A.** Its Kd is ~55 nM and 55.4 nM.

**Q.** And the “ka (kinetics)” value ([2]; kinetic analysis of SPR data)?
**A.** The value was 2.01e+06 M⁻¹ s⁻¹.

**Q.** And the “kd (kinetics)” value ([2]; kinetic analysis of SPR data)?
**A.** The value was 0.110 s⁻¹.

**Q.** And the Kd [2, 4]?
**A.** Its Kd is 54.2 nM.

**Q.** And the Kd ([3]; affinity analysis of SPR data, read-out: KD (affinity))?
**A.** Its Kd is 71 ± 6.9 nM.

**Q.** And the “ka (kinetics)” value ([3]; kinetic analysis of SPR data)?
**A.** The value was 2.14e+06 M⁻¹ s⁻¹.

**Q.** What about the “kd (kinetics)” value ([3]; kinetic analysis of SPR data) of the same substance?
**A.** The value was 0.188 s⁻¹.

**Q.** And the Kd [3, 4]?
**A.** The Kd was 87.9 nM.
